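Where inhibition never reached the appropriate level, the endpoint shown equals the highest concentration tested. Otherwise, values were interpolated linearly from a five-concentration, 48-hour dose response in 96-well plates. TGI: concentration producing complete growth inhibition.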
Assays:
Assay in all cases: NCI tumour cell line growth inhibition, 48 h
[1] = test system: DLD-1 colon
[2] = test system: DMS 114 small cell lung
[3] = test system: DMS 273 small cell lung
[4] = test system: HCC-2998 colon
[5] = test system: HOP-18 NSCLC
[6] = test system: IGROV1 ovarian
[7] = test system: KM20L2 colon
[8] = test system: LXFL 529 NSCLC
[9] = test system: M19-MEL melanoma
[10] = test system: OVCAR-3 ovarian
[11] = test system: OVCAR-8 ovarian
[12] = test system: SN12C renal
[13] = test system: SNB-75 CNS
[14] = test system: XF 498 CNS
[15] = test system: SK-MEL-5 melanoma
[16] = test system: SNB-78 CNS
[17] = test system: BT-549 breast
[18] = test system: DU-145 prostate

Compound CCN(CC)C(=O)Cc1c(C(=O)N(CC)CC)c(=O)nc2sccn12 has a TGI [1] greater than 100 µM, a TGI [2] greater than 100 µM and a TGI [3] greater than 100 µM. The TGI [4] was greater than 100 µM, the TGI [5] was greater than 100 µM and the TGI [6] was greater than 100 µM. For the same compound, the TGI [7] was greater than 100 µM, the TGI [8] was greater than 100 µM and the TGI [9] was greater than 100 µM. The TGI [10] was greater than 100 µM, the TGI [11] was greater than 100 µM and the TGI [12] was greater than 100 µM. For the same compound, the TGI [13] was greater than 100 µM and the TGI [14] was greater than 100 µM.

O=C(c1ccccc1)c1c(CC(O)c2ccccn2)n(C(=O)c2ccccc2)c2ccccc12 (stereo not drawn) was tested, and the TGI [1] was greater than 100 µM, the TGI [2] was 71.9 µM and the TGI [3] was 58.3 µM. The TGI [4] was 67.7 µM, the TGI [6] was greater than 100 µM and the TGI [7] was 33.5 µM. The TGI [8] was greater than 100 µM, the TGI [9] was 40.1 µM and the TGI [10] was 68.4 µM. The TGI [11] was 95.8 µM, the TGI [15] was 27.3 µM and the TGI [13] was 43.3 µM. The TGI [14] was 46 µM.

CCN(CC)c1cccc2c1/C(=N/O)CCCC2 showed a TGI [2] greater than 100 µM, a TGI [3] greater than 100 µM and a TGI [5] greater than 100 µM. The TGI [7] was greater than 100 µM, the TGI [8] was greater than 100 µM and the TGI [9] was greater than 100 µM. It also gave a TGI [11] greater than 100 µM, a TGI [15] greater than 100 µM and a TGI [12] greater than 100 µM. For the same compound, the TGI [13] was greater than 100 µM, the TGI [16] was greater than 100 µM and the TGI [14] was greater than 100 µM.

Compound Nc1nc2c3nc(Nc4ccccc4)sc3nc(=S)n2c2sc(Nc3ccccc3)nc12 has a TGI [1] greater than 100 µM, a TGI [2] greater than 100 µM and a TGI [3] greater than 100 µM. It also gave a TGI [4] greater than 100 µM, a TGI [5] greater than 100 µM and a TGI [6] greater than 100 µM. The TGI [7] was greater than 100 µM, the TGI [8] was 29.4 µM and the TGI [9] was greater than 100 µM. For the same compound, the TGI [11] was greater than 100 µM, the TGI [15] was greater than 100 µM and the TGI [12] was greater than 100 µM. The TGI [13] was greater than 100 µM, the TGI [16] was greater than 100 µM and the TGI [14] was 4.25 µM.

Work on COP(=O)(OC)C(=O)N1N(c2ccc([N+](=O)[O-])cc2)C(=O)C(C)NC1(NNc1ccc([N+](=O)[O-])cc1)P(=O)(OC)OC (stereo not drawn) yielded a TGI [1] greater than 100 µM, a TGI [2] greater than 100 µM and a TGI [3] greater than 100 µM. It also gave a TGI [4] greater than 100 µM, a TGI [6] greater than 100 µM and a TGI [7] greater than 100 µM. The TGI [8] was greater than 100 µM, the TGI [9] was greater than 100 µM and the TGI [10] was greater than 100 µM. It also gave a TGI [11] greater than 100 µM, a TGI [15] greater than 100 µM and a TGI [12] greater than 100 µM. For the same compound, the TGI [13] was greater than 100 µM and the TGI [14] was greater than 100 µM.

N#Cc1cccc2c1Nc1ccccc1S2 showed a TGI [1] greater than 100 µM, a TGI [2] greater than 100 µM and a TGI [3] greater than 100 µM. For the same compound, the TGI [4] was greater than 100 µM, the TGI [5] was greater than 100 µM and the TGI [6] was greater than 100 µM. The TGI [7] was greater than 100 µM, the TGI [9] was greater than 100 µM and the TGI [10] was greater than 100 µM. The TGI [11] was greater than 100 µM, the TGI [15] was greater than 100 µM and the TGI [12] was greater than 100 µM. The TGI [13] was greater than 100 µM, the TGI [16] was greater than 100 µM and the TGI [14] was greater than 100 µM.

COc1c(CC=C(C)C)c(O)c(C(CC(C)C)c2c(O)c3c(c(C(C)=O)c2O)OC(C(C)(C)O)C3)c(O)c1C(C)=O (stereo not drawn) gave a TGI [17] of 9.49 µM, a TGI [18] greater than 12.5 µM and a TGI [4] greater than 12.5 µM. The TGI [6] was greater than 12.5 µM, the TGI [10] was greater than 12.5 µM and the TGI [11] was greater than 12.5 µM. The TGI [15] was 4.44 µM, the TGI [12] was greater than 12.5 µM and the TGI [13] was greater than 12.5 µM.

CC(C)C1C(=O)N(c2c(F)c(F)c(F)c(F)c2F)C(=S)N1CCS(=O)c1ccccc1 (stereo not drawn) was tested, and the TGI [17] was 30.9 µM, the TGI [18] was 47.6 µM and the TGI [4] was 21.8 µM. The TGI [6] was 34.4 µM, the TGI [10] was 30.5 µM and the TGI [11] was 32.6 µM. The TGI [15] was 27.3 µM, the TGI [12] was 31 µM and the TGI [13] was greater than 58.7 µM.

O=c1[nH]c(Cc2ccccc2)nc2c1sc1nc3ccccc3n12 was tested, and the TGI [17] was greater than 100 µM, the TGI [18] was greater than 100 µM and the TGI [4] was greater than 100 µM. It also gave a TGI [6] greater than 100 µM, a TGI [10] greater than 100 µM and a TGI [11] greater than 100 µM. The TGI [15] was greater than 100 µM, the TGI [12] was greater than 100 µM and the TGI [13] was greater than 100 µM.

O=c1c2cc(I)ccc2nc(SCc2nncs2)n1Cc1ccccc1 was tested, and the TGI [17] was greater than 100 µM, the TGI [18] was greater than 100 µM and the TGI [4] was greater than 100 µM. It also gave a TGI [6] of 48.7 µM, a TGI [10] greater than 100 µM and a TGI [11] greater than 100 µM. It also gave a TGI [15] of 88.3 µM, a TGI [12] greater than 100 µM and a TGI [13] of 74.9 µM.

With N#Cc1cc(C#N)c(N)nc1N the TGI [17] was greater than 100 µM, the TGI [18] was greater than 100 µM and the TGI [4] was greater than 100 µM. For the same compound, the TGI [6] was greater than 100 µM, the TGI [10] was greater than 100 µM and the TGI [11] was greater than 100 µM. The TGI [15] was greater than 100 µM, the TGI [12] was greater than 100 µM and the TGI [13] was greater than 100 µM.
